According to patent publication US12552775B2, “Compounds and uses thereof” (Foghorn Therapeutics Inc., priority 2020, dated 2026):

Key:
HiBit-BRM fusion protein = target: T1, HiBit-BRM fusion protein (Homo sapiens, UniProt P51531); assay: HiBiT-BRM cell-based degradation assay (Nano-Glo HiBiT Lytic Detection, 24 h); conditions: stable HeLa cell line expressing HiBiT-BRM, top dose 30 μM
T1 construct: expressed in transfected cells
Outline: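 HiBiT-tagged BRM levels in a stable HeLa line are measured after one day of compound treatment (up to 30 μM final, duplicate 10-point curves) by adding LgBiT lytic reagent and reading bioluminescence; values are expressed relative to vehicle and a 2 μM degrader control.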

[1] = target: T2, HiBit-BRG1 fusion protein (Homo sapiens, UniProt P51532); assay: HiBiT-BRG1 cell-based degradation assay (Nano-Glo HiBiT Lytic Detection, 24 h); conditions: stable HeLa cell line expressing HiBit-BRG1 and LgBit, top dose 30 μM, read-out: BRG1 HiBit Degradation Maximum (%)
T2 construct: expressed in transfected cells
Outline: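 HeLa cells stably expressing HiBiT-BRG1 plus LgBiT were treated with 10-point 3-fold compound dilutions (top 30 μM final) for 24 h. Lytic Nano-Glo HiBiT luminescence was read. % degradation was normalised between DMSO (high control) and 2 μM of a reference BRM/BRG1 degrader (low control).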

T2 sequence (P51532 whole entry, the tested form may be a part): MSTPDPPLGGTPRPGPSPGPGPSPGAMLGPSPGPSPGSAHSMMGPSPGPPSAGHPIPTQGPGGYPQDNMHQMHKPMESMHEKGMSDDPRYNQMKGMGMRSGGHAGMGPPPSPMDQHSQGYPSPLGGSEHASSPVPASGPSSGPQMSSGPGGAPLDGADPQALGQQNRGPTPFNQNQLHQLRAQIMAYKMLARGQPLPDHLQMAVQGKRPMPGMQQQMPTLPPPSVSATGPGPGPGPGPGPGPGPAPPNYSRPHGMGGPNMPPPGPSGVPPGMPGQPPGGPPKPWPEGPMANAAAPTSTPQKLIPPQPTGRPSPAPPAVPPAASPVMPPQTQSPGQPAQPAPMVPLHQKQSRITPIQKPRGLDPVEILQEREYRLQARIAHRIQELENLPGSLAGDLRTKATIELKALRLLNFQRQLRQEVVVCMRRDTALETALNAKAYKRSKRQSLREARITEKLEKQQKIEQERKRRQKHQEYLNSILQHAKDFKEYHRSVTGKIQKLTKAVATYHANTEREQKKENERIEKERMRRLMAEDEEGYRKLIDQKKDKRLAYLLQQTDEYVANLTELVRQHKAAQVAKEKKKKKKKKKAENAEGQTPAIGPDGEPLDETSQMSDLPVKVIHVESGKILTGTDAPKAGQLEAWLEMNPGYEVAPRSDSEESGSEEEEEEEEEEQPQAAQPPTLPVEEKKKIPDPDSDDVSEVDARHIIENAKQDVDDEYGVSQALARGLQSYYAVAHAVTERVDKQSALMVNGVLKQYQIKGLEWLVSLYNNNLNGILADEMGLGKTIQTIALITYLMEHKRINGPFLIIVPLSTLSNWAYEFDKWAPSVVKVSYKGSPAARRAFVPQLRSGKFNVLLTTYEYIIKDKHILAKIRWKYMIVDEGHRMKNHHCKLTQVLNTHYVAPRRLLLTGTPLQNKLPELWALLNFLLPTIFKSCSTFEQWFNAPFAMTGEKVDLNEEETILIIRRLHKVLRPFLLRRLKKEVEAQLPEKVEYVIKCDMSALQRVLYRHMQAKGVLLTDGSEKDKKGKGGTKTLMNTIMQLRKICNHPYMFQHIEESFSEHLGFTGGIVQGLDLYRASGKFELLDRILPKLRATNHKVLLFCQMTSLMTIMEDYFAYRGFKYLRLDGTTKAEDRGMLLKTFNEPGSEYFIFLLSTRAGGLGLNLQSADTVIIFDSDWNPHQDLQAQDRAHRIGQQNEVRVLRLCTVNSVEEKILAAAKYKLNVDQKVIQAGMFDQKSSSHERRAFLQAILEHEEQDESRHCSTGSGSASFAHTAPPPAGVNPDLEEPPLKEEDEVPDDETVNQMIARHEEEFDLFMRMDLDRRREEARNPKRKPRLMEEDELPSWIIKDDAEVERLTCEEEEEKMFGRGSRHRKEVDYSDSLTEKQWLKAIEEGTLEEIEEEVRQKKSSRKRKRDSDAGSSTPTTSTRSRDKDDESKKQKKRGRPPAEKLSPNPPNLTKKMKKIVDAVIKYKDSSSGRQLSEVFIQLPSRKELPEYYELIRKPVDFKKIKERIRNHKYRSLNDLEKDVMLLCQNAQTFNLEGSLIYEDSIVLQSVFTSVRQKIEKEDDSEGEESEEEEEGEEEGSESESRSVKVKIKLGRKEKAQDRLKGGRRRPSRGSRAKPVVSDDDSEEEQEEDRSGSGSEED
T1 sequence (P51531 whole entry, the tested form may be a part): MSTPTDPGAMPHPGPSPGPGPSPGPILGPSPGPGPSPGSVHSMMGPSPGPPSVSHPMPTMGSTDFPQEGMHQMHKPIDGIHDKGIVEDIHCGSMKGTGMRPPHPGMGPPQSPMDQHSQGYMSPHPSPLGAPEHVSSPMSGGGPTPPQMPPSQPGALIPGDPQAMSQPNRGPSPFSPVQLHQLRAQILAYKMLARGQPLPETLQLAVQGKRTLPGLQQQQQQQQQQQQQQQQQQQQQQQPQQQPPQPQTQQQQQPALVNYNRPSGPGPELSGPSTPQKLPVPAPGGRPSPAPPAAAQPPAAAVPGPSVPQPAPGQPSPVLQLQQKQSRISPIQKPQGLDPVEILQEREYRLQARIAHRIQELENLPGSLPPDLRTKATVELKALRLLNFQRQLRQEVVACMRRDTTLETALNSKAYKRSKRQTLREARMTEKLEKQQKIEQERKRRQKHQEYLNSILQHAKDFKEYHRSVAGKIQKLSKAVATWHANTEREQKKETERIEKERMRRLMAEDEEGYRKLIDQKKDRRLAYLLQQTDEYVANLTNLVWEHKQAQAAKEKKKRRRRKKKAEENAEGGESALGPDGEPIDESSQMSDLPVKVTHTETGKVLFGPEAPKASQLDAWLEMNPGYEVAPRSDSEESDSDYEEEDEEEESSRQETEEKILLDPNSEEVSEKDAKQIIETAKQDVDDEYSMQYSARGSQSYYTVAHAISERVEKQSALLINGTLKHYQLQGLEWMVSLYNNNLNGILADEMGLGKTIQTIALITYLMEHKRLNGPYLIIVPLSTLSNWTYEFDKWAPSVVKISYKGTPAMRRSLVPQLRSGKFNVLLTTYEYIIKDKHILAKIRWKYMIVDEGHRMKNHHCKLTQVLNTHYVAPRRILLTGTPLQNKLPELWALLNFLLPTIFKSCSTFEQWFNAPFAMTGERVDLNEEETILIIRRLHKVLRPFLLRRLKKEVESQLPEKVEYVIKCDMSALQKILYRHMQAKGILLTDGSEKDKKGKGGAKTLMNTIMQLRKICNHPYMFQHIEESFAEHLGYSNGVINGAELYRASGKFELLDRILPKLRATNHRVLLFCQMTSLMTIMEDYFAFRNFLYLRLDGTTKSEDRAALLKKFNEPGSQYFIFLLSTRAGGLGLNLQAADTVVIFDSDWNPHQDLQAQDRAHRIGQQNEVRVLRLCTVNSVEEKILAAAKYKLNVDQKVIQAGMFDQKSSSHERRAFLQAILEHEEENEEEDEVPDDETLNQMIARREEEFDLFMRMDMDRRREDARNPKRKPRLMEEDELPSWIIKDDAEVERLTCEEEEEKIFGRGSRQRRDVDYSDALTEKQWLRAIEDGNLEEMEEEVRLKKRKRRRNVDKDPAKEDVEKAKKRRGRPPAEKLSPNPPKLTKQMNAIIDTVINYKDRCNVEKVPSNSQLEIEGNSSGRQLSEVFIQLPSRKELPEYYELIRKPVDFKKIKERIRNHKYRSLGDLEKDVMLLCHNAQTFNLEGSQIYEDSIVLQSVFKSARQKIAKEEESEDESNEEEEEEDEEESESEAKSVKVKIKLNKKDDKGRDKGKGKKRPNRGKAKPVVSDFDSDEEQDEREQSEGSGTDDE

`Nc1nnc(-c2ccccc2O)cc1OCC12CC(C(=O)N3CC(CCOc4cccc5c4C(=O)N(C4CCC(=O)NC4=O)C5=O)C3)(C1)C2` (stereo not shown) [Compound 78, 4-(2-(1-(3-(((3-amino-6-(2-hydroxyphenyl)pyridazin-4-yl)oxy)methyl)bicyclo[1.1.1]pentane-1-carbonyl)azetidin-3-yl)ethoxy)-2-(2,6-dioxopiperidin-3-yl)isoindoline-1,3-dione] was tested, and the “BRM HiBit Degradation Maximum (%)” value (HiBit-BRM fusion protein) was “C (“C” indicates maximum degradation < 50%)” and the Dmax [1] was less than 50%.
With `Cc1ncsc1-c1ccc(CNC(=O)[C@@H]2C[C@@H](O)CN2C(=O)[C@@H](NC(=O)CCCCCCCNC(=O)C23CC(COc4cc(-c5ccccc5O)nnc4N)(C2)C3)C(C)(C)C)cc1` [Compound 71, (2S,4R)-1-((S)-2-(8-(3-(((3-amino-6-(2-hydroxyphenyl)pyridazin-4-yl)oxy)methyl)bicyclo[1.1.1]pentane-1-carboxamido)octanamido)-3,3-dimethylbutanoyl)-4-hydroxy-N-(4-(4-methylthiazol-5-yl)benzyl)pyrrolidine-2-carboxamide] the “BRM HiBit Degradation Maximum (%)” value (HiBit-BRM fusion protein) was “B (“B” indicates maximum degradation ≥ 50%)” and the Dmax [1] was less than 50%.
`Nc1nnc(-c2ccccc2O)cc1OCCC12CC(NC(=O)CCOCCOCCOc3cccc4c3C(=O)N(C3CCC(=O)NC3=O)C4=O)(C1)C2` (stereo not shown) [Compound 30, N-(3-(2-((3-amino-6-(2-hydroxyphenyl)pyridazin-4-yl)oxy)ethyl)bicyclo[1.1.1]pentan-1-yl)-3-(2-(2-((2-(2,6-dioxopiperidin-3-yl)-1,3-dioxoisoindolin-4-yl)oxy)ethoxy)ethoxy)propanamide] was tested, and the “BRM HiBit Degradation Maximum (%)” value (HiBit-BRM fusion protein) was “C (“C” indicates maximum degradation < 50%)” and the Dmax [1] was less than 50%.
For `Nc1nnc(-c2ccccc2O)cc1OCC12CC(C(=O)NCCCCCCCCNc3ccc4c(c3)C(=O)N(C3CCC(=O)NC3=O)C4=O)(C1)C2` (stereo not shown) [Compound 65, 3-(((3-amino-6-(2-hydroxyphenyl)pyridazin-4-yl)oxy)methyl)-N-(8-((2-(2,6-dioxopiperidin-3-yl)-1,3-dioxoisoindolin-5-yl)amino)octyl)bicyclo[1.1.1]pentane-1-carboxamide], the “BRM HiBit Degradation Maximum (%)” value (HiBit-BRM fusion protein) was “C (“C” indicates maximum degradation < 50%)” and the Dmax [1] was less than 50%.
`Nc1nnc(-c2ccccc2O)cc1OCC12CC(C(=O)N3CC(COc4cccc5c4C(=O)N(C4CCC(=O)NC4=O)C5=O)C3)(C1)C2` (stereo not shown) [Compound 87, 4-((1-(3-(((3-amino-6-(2-hydroxyphenyl)pyridazin-4-yl)oxy)methyl)bicyclo[1.1.1]pentane-1-carbonyl)azetidin-3-yl)methoxy)-2-(2,6-dioxopiperidin-3-yl)isoindoline-1,3-dione] was tested, and the “BRM HiBit Degradation Maximum (%)” value (HiBit-BRM fusion protein) was “C (“C” indicates maximum degradation < 50%)” and the Dmax [1] was less than 50%.
`Cc1ncsc1-c1ccc(CNC(=O)[C@@H]2C[C@@H](O)CN2C(=O)[C@@H](NC(=O)CCCCCCCCCCCCCCC(=O)NCC23CC(COc4cc(-c5ccccc5O)nnc4N)(C2)C3)C(C)(C)C)cc1` [Compound 41, N1-((3-(((3-amino-6-(2-hydroxyphenyl)pyridazin-4-yl)oxy)methyl)bicyclo[1.1.1]pentan-1-yl)methyl)-N16-((S)-1-((2S,4R)-4-hydroxy-2-((4-(4-methylthiazol-5-yl)benzyl)carbamoyl)pyrrolidin-1-yl)-3,3-dimethyl-1-oxobutan-2-yl)hexadecanediamide] was tested, and the “BRM HiBit Degradation Maximum (%)” value (HiBit-BRM fusion protein) was “B (“B” indicates maximum degradation ≥ 50%)” and the Dmax [1] was less than 50%.
In the case of `Cc1ncsc1-c1ccc(CNC(=O)[C@@H]2C[C@@H](O)CN2C(=O)[C@@H](NC(=O)CCCCCCCCCNC(=O)C23CC(COc4cc(-c5ccccc5O)nnc4N)(C2)C3)C(C)(C)C)cc1` [Compound 72, (2S,4R)-1-((S)-2-(10-(3-(((3-amino-6-(2-hydroxyphenyl)pyridazin-4-yl)oxy)methyl)bicyclo[1.1.1]pentane-1-carboxamido)decanamido)-3,3-dimethylbutanoyl)-4-hydroxy-N-(4-(4-methylthiazol-5-yl)benzyl)pyrrolidine-2-carboxamide], the “BRM HiBit Degradation Maximum (%)” value (HiBit-BRM fusion protein) is reported as “B (“B” indicates maximum degradation ≥ 50%)” and the Dmax [1] is reported as less than 50%.
In the case of `Nc1nnc(-c2ccccc2O)cc1OCC12CC(C(=O)NCCCCCNc3ccc4c(c3)C(=O)N(C3CCC(=O)NC3=O)C4=O)(C1)C2` (stereo not shown) [Compound 63, 3-(((3-amino-6-(2-hydroxyphenyl)pyridazin-4-yl)oxy)methyl)-N-(5-((2-(2,6-dioxopiperidin-3-yl)-1,3-dioxoisoindolin-5-yl)amino)pentyl)bicyclo[1.1.1]pentane-1-carboxamide; formic acid], the “BRM HiBit Degradation Maximum (%)” value (HiBit-BRM fusion protein) is reported as “C (“C” indicates maximum degradation < 50%)” and the Dmax [1] is reported as less than 50%.
`Nc1nnc(-c2ccccc2O)cc1OCC12CC(C(=O)NCCCC#Cc3cccc4c3C(=O)N(C3CCC(=O)NC3=O)C4=O)(C1)C2` (stereo not shown) [Compound 88, 3-(((3-amino-6-(2-hydroxyphenyl)pyridazin-4-yl)oxy)methyl)-N-(5-(2-(2,6-dioxopiperidin-3-yl)-1,3-dioxoisoindolin-4-yl)pent-4-yn-1-yl)bicyclo[1.1.1]pentane-1-carboxamide] was tested, and the “BRM HiBit Degradation Maximum (%)” value (HiBit-BRM fusion protein) was “C (“C” indicates maximum degradation < 50%)” and the Dmax [1] was less than 50%.
For `Nc1nnc(-c2ccccc2O)cc1OCC12CC(C(=O)N3CCN(CCCOc4ccc5c(c4)C(=O)N(C4CCC(=O)NC4=O)C5=O)CC3)(C1)C2` (stereo not shown) [Compound 97, 5-(3-(4-(3-(((3-amino-6-(2-hydroxyphenyl)pyridazin-4-yl)oxy)methyl)bicyclo[1.1.1]pentane-1-carbonyl)piperazin-1-yl)propoxy)-2-(2,6-dioxopiperidin-3-yl)isoindoline-1,3-dione; formic acid], the “BRM HiBit Degradation Maximum (%)” value (HiBit-BRM fusion protein) was “C (“C” indicates maximum degradation < 50%)” and the Dmax [1] was less than 50%.
With `Nc1nnc(-c2ccccc2O)cc1OCC12CC(C(=O)NCCS(=O)(=O)CCNc3cccc4c3C(=O)N(C3CCC(=O)NC3=O)C4=O)(C1)C2` (stereo not shown) [Compound 74, 3-(((3-amino-6-(2-hydroxyphenyl)pyridazin-4-yl)oxy)methyl)-N-(2-((2-((2-(2,6-dioxopiperidin-3-yl)-1,3-dioxoisoindolin-4-yl)amino)ethyl)sulfonyl)ethyl)bicyclo[1.1.1]pentane-1-carboxamide] the “BRM HiBit Degradation Maximum (%)” value (HiBit-BRM fusion protein) was “C (“C” indicates maximum degradation < 50%)” and the Dmax [1] was less than 50%.
`Nc1nnc(-c2ccccc2O)cc1OCC12CC(C(=O)NCCCCS(=O)(=O)CCCNc3cccc4c3C(=O)N(C3CCC(=O)NC3=O)C4=O)(C1)C2` (stereo not shown) [Compound 73, 3-(((3-amino-6-(2-hydroxyphenyl)pyridazin-4-yl)oxy)methyl)-N-(4-((3-((2-(2,6-dioxopiperidin-3-yl)-1,3-dioxoisoindolin-4-yl)amino)propyl)sulfonyl)butyl)bicyclo[1.1.1]pentane-1-carboxamide] was tested, and the “BRM HiBit Degradation Maximum (%)” value (HiBit-BRM fusion protein) was “C (“C” indicates maximum degradation < 50%)” and the Dmax [1] was less than 50%.
`Cc1ncsc1-c1ccc(CNC(=O)[C@@H]2C[C@@H](O)CN2C(=O)[C@@H](NC(=O)COCCOCCOCCNC(=O)C23CC(COc4cc(-c5ccccc5O)nnc4N)(C2)C3)C(C)(C)C)cc1` [Compound 69, (2S,4R)-1-((S)-1-(3-(((3-amino-6-(2-hydroxyphenyl)pyridazin-4-yl)oxy)methyl)bicyclo[1.1.1]pentan-1-yl)-15-(tert-butyl)-1,13-dioxo-5,8,11-trioxa-2,14-diazahexadecan-16-oyl)-4-hydroxy-N-(4-(4-methylthiazol-5-yl)benzyl)pyrrolidine-2-carboxamide] was tested, and the “BRM HiBit Degradation Maximum (%)” value (HiBit-BRM fusion protein) was “C (“C” indicates maximum degradation < 50%)” and the Dmax [1] was less than 50%.
For `Cc1ncsc1-c1ccc(CNC(=O)[C@@H]2C[C@@H](O)CN2C(=O)[C@@H](NC(=O)C23CC(COc4cc(-c5ccccc5O)nnc4N)(C2)C3)C(C)(C)C)cc1` [Compound 105, (2S,4R)-1-((S)-2-(3-(((3-amino-6-(2-hydroxyphenyl)pyridazin-4-yl)oxy)methyl)bicyclo[1.1.1]pentane-1-carboxamido)-3,3-dimethylbutanoyl)-4-hydroxy-N-(4-(4-methylthiazol-5-yl)benzyl)pyrrolidine-2-carboxamide], the “BRM HiBit Degradation Maximum (%)” value (HiBit-BRM fusion protein) was “C (“C” indicates maximum degradation < 50%)” and the Dmax [1] was less than 50%.
In the case of `Nc1nnc(-c2ccccc2O)cc1OCCC12CC(NC(=O)C3CC3CNC(=O)COc3ccc4c(c3)C(=O)N(C3CCC(=O)NC3=O)C4=O)(C1)C2` (stereo not shown) [Compound 29, N-(3-(2-((3-amino-6-(2-hydroxyphenyl)pyridazin-4-yl)oxy)ethyl)bicyclo[1.1.1]pentan-1-yl)-2-((2-((2-(2,6-dioxopiperidin-3-yl)-1,3-dioxoisoindolin-5-yl)oxy)acetamido)methyl)cyclopropane-1-carboxamide], the “BRM HiBit Degradation Maximum (%)” value (HiBit-BRM fusion protein) is reported as “C (“C” indicates maximum degradation < 50%)” and the Dmax [1] is reported as less than 50%.
For `Nc1nnc(-c2ccccc2O)cc1OCC12CC(CNC(=O)CCOCCOCCOc3cccc4c3C(=O)N(C3CCC(=O)NC3=O)C4=O)(C1)C2` (stereo not shown) [Compound 14, N-((3-(((3-amino-6-(2-hydroxyphenyl)pyridazin-4-yl)oxy)methyl)bicyclo[1.1.1]pentan-1-yl)methyl)-3-(2-(2-((2-(2,6-dioxopiperidin-3-yl)-1,3-dioxoisoindolin-4-yl)oxy)ethoxy)ethoxy)propanamide], the “BRM HiBit Degradation Maximum (%)” value (HiBit-BRM fusion protein) was “C (“C” indicates maximum degradation < 50%)” and the Dmax [1] was less than 50%.
`Nc1nnc(-c2ccccc2O)cc1OCC12CC(C(=O)NCCOc3ccc4c(c3)C(=O)N(C3CCC(=O)NC3=O)C4=O)(C1)C2` (stereo not shown) [Compound 55, 3-(((3-amino-6-(2-hydroxyphenyl)pyridazin-4-yl)oxy)methyl)-N-(2-((2-(2,6-dioxopiperidin-3-yl)-1,3-dioxoisoindolin-5-yl)oxy)ethyl)bicyclo[1.1.1]pentane-1-carboxamide] was tested, and the “BRM HiBit Degradation Maximum (%)” value (HiBit-BRM fusion protein) was “C (“C” indicates maximum degradation < 50%)” and the Dmax [1] was less than 50%.
